Reference: ChEMBL document CHEMBL1128943, “Small peptidic aldehyde inhibitors of human rhinovirus 3C protease” (Bioorg Med Chem Lett, 1996)
Where a SMILES comes first, the peptide text is derived from it. [ ]: non-standard residue; d: D form. The star is where a group is joined. Met(O2) = CS(=O)(=O)CC[C@H](N)C(=O)O; hPhe = N[C@@H](CCc1ccccc1)C(=O)O; Cbz = O=C(OCc1ccccc1)*; Boc = CC(C)(C)OC(=O)*

Columns and labels:
Human rhinovirus sp. = assay: Antiviral activity against human rhinovirus-14 in HeLa cells; assay type: functional, organism-based
HeLa = assay: Cytotoxic activity against HeLa cells using XTT assay.; assay type: functional; details: Homo sapiens, read-out: TC50 (the source's name)

IC50 (Human rhinovirus sp.) [µM] | SMILES | CC50 (HeLa) [µM]
> 224 | CC(=O)N[C@@H](CC(C)C)C(=O)N[C@@H](CC(C)C)C(=O)N[C@H](C=O)CCCNC(=N)N [LEUPEPTIN] | > 224
20.3 | CSCC[C@@H](C=O)NC(=O)[C@H](CCc1ccccc1)NC(=O)OCc1ccccc1 (Cbz-[hPhe]-Met-aldehyde) | 13.5
17.7 | CCCC[C@@H](C=O)NC(=O)[C@H](CC(C)C)NC(=O)OCc1ccccc1 [CALPEPTIN] | 22.1
39.3 | CC(C)C[C@H](NC(=O)OCc1ccccc1)C(=O)N[C@H](C=O)CCS(C)(=O)=O (Cbz-Leu-[Met(O2)]-aldehyde) | > 224
23.7 | CSCC[C@@H](C=O)NC(=O)[C@H](CC(C)C)NC(=O)[C@H](CC(C)C)NC(C)=O (Ac-Leu-Leu-Met-aldehyde) | 37.1
3.4 | CS(=O)(=O)CC[C@@H](C=O)NC(=O)[C@H](Cc1ccccc1)NC(=O)OCc1ccccc1 | > 224
81.9 | CC(=O)N[C@@H](CC(C)C)C(=O)N[C@@H](CC(C)C)C(=O)N[C@H](C=O)CCS(C)(=O)=O (Ac-Leu-Leu-[Met(O2)]-aldehyde) | > 224
9.7 | CSCC[C@@H](C=O)NC(=O)[C@H](Cc1ccccc1)NC(=O)OCc1ccccc1 (Cbz-Phe-Met-aldehyde) | 42.2

The remaining lines, values behind:

SMILES | IC50 (Human rhinovirus sp.) [µM] | CC50 (HeLa) [µM]
CC(C)(C)OC(=O)N[C@@H](Cc1ccccc1)C(=O)N[C@H](C=O)CCS(C)(=O)=O (Boc-Phe-[Met(O2)]-aldehyde) | 71.3 | 148
CC(C)C[C@H](NC(=O)[C@@H](NC(=O)OC(C)(C)C)C(C)C)C(=O)N[C@@H](Cc1ccccc1)C(=O)N[C@H](C=O)CCC(N)=O (Boc-VLFQ-aldehyde) | 400 | 0.6
NC(=O)CC[C@@H](C=O)NC(=O)[C@H](Cc1ccccc1)NC(=O)OCc1ccccc1 | 42 | > 224
CSCC[C@@H](C=O)NC(=O)[C@H](CC(C)C)NC(=O)OCc1ccccc1 (Cbz-Leu-Met-aldehyde) | 46.8 | 83
CSCC[C@@H](C=O)NC(=O)[C@H](Cc1ccccc1)NC(=O)OC(C)(C)C (Boc-Phe-Met-aldehyde) | 84.1 | 65.4
CS(=O)(=O)CC[C@@H](C=O)NC(=O)[C@H](CCc1ccccc1)NC(=O)OCc1ccccc1 (Cbz-[hPhe]-[Met(O2)]-aldehyde) | 81.2 | 162
CS(=O)(=O)CC[C@@H](C=O)NC(=O)C(Cc1ccccc1)NC(=O)OCc1ccccc1 (single isomer, unassigned) | > 224 | > 224
